From patent US10376518B2, “Methods for the treatment of autoimmune diseases” (UCL Business PLC, priority 2013, dated 2019) come the findings set out here.

The test system of assay [1] is FOXP3 expression by CD8+ T cells. Briefly: CD8+FOXP3+ Treg induction in PBMC cultures, flow cytometry. The note with it: for FOXP3 expression by CD8+ T cells: 24 h. The assay is classed as cell-based, human. The text has this:
Isolation of cell populations. PBMC were isolated by Ficoll-Paque Plus (GE Healthcare) gradient centrifugation, resuspended to 10^7 cells/ml in FCS (Biosera) and 5% DMSO (Sigma-Aldrich), and frozen until subsequent use. CD8^+ T cells were negatively isolated and monocytes, CD4^+ T cells or B cells were depleted from PBMCs by positive selection with magnetic beads (Miltenyi, Biotec). Monocyte subsets or CD8^+ T cells interacting with monocytes were FACS sorted with the FACSAria (Beckton, Dickinson) based on expression of HLA-DR and CD14 or CD8 respectively.
(§1) Cell Cultures. For CD8^+FoxP3^+ Treg induction, PBMC were cultured with anti-CD3 mAb (OKT3 (e-bioscience), HIT3A (e-bioscience), UCHT1 (e-bioscience), Otelixizumab (GSK)) or anti-CD3 F(Ab)2 (GSK) in RPMI1640, (Sigma-Aldrich), 10% fetal calf serum (Biosera) or human serum type AB (Lonza), 100 U/mg/ml penicillin/streptomycin (Sigma-Aldrich) for 24 h or 5 d. Alternatively, 1 μg/ml of agonist antibodies against CD28 (e-bioscience) or TNFRII (Hycult Biotech) in combination with OKT3 were utilized in PBMC cultures depleted of monocytes. For cytokine neutralization cultures, PBMC were cultured with OKT3 alone or in the presence of an isotype control or 10 μg/ml anti-TNF-α (R&D systems) or anti-IL-1β mAbs (R&D systems), 12.5 μg/ml anti-TGF-β mAb (R&D systems) or 0.1 μg/ml anti-IL-6 mAb (R&D systems). To inhibit monocyte activation of CD8^+ T cells, 10 μg/ml anti-CD80 (R&D systems) or anti-CD86 (R&D systems) were utilized. To convert a non-responder CD8^+ T cell into a responder, whole PBMC were incubated with 10 μg/ml TAPI (Enzo Life Sciences) for 1 h at room temperature, or with 5 μM selective p38 MAPK inhibitor, BIRB 796 (Merck Millipore), for 2 hours at 37° C. before culture with OKT3.
Flow cytometry and soluble cytokine detection. Cell surface staining and intracellular staining were performed using the eBioscience FOXP3 staining buffer set as per manufacturers' instructions. For CD8^+ T cell staining, CD8-FITC and CD4-V450 were used to identify a pure CD8^+ T cell population. CD25-PECy7, TNFRII-APC, CTLA-4-PE, TGFβ-APC were used for characterization. For monocyte and B cells staining, CD14-APC, CD16-PE, HLA-DR-PECy7, CD19-APC were used in combination with membrane TNFα-PE. FOXP3-PE was used to detect intracellular FOXP3. For analysis of human intracellular cytokine production, PBMC were stimulated for 4 h with 50 ng/ml PMA, 250 ng/ml ionomycin (Sigma-Aldrich), and Golgi-Plug (BD, Biosciences) in complete medium. IFN-γ-PECy7, IL-10-APC, IL-2-APC, IL-17-APC, TNF-α-APC and appropriate isotype controls were utilized. For staining of membrane TNF-α versus soluble TNF-α production by monocytes, PBMC were cultured with anti-CD3 mAb alone, or after pre-incubation with TAPI, for 24 h. Supernatants were subsequently removed and replaced with the aforementioned stimulation mix for 4 h. PBMC were then stained for CD14-APC and membrane TNF-α-PE, before intracellular staining for TNF-α-FITC. Data were acquired on an LSRII (Beckton, Dickinson) and analyzed with FlowJo (TreeStar). IL-17 and IFN-γ levels from suppression assay supernatants were measured by mosaic ELISA (R&D Systems) as described by manufacturer's instruction and analyzed by Quansys Q-View™ Software (R&D Systems).
(Flow cytometry measures light scatter and fluorescence of single cells or particles in a stream.)

The subject of assay [2] is membrane TNF-α expression by monocytes. As to the kind of experiment: membrane TNF-α staining of monocytes in PBMC, flow cytometry. Format: cell-based, human. Particulars: PBMC pre-incubated 1 h at room temperature, 10 μg/ml. As to the method:
as §1, with “To convert a non-responder CD8^+ T cell into a responder, whole PBMC were incubated with 10 μg/ml TAPI (Enzo Life Sciences) for 1 h at room temperature, or with 5 μM selective p38 MAPK inhibitor, BIRB 796 (Merck Millipore), for 2 hours at 37° C. before culture with OKT3.” left out
Flow cytometry and soluble cytokine detection. […] Data were acquired on an LSRII (Beckton, Dickinson) and analyzed with FlowJo (TreeStar). IL-17 and IFN-γ levels from suppression assay supernatants were measured by mosaic ELISA (R&D Systems) as described by manufacturer's instruction and analyzed by Quansys Q-View™ Software (R&D Systems).

[3] abbreviates: fixed monocytes reintroduced to autologous monocyte-depleted PBMC.

As to `Cc1ccc(-n2nc(C(C)(C)C)cc2NC(=O)Nc2ccc(OCCN3CCOCC3)c3ccccc23)cc1` [BIRB 796], the “FOXP3 expression by CD8+ T cells that did not initially respond to CD3-specific stimulation” value in assay [1] (RA PBMC pre-incubated 5 μM, 2 h, 37° C., then OKT3 24 h, non-responders) is listed as “resulted in FOXP3 expression”. Also, in assay [1] (RA PBMC pre-incubated 5 μM, 2 h, 37° C., then OKT3 24 h, responders), the “response of CD8+ T cells that could already induce FOXP3 expression” value is recorded as “did not alter the response”.

In the case of “F(Ab)2 of Otelixizumab: F(Ab)2 fragment of the anti-CD3 antibody Otelixizumab (GSK)”, in assay [1] (setting [3]), the “FOXP3 expression by CD8+ T cells” value is “successfully induced FOXP3 expression”.

With OKT3: anti-CD3 mAb clone (e-bioscience), the “FOXP3 expression by CD8+ T cells” value in assay [1] (setting [3]) is reported as “successfully induced FOXP3 expression”; in assay [1] (whole RA PBMC, 1 μg/ml) it was “successfully increased levels of FOXP3 expression”.

TAPI: the “maximal induction of CD8+FOXP3+ Treg from prior non-responders” value in assay [1] (RA PBMC pre-incubated with TAPI, then anti-CD3 mAb 24 h) is “approximately 50%”. In addition, in assay [1] (healthy PBMC pre-incubated with TAPI, then OKT3 24 h), the “induction of CD8+FOXP3+ Treg in healthy individuals” value was “this effect was not observed in healthy individuals”. Further, in assay [2], the “expression of membrane TNF-α by monocytes” value is “increased expression of membrane TNF-α by monocytes”.
